The values below come from patent US6811766B1, “Ultrasound imaging with contrast agent targeted to microvasculature and a vasodilator drug” (Amersham Health AS, priority 1997, dated 2004).

A short description of assay [1]: Heart rate under continuous dobutamine infusion. The format is in vivo. The following applies: dog, continuous dobutamine infusion 15 μg/kg/min, stable effect; normal 100 beats per minute. As to the method: Example 1 was repeated except that a continuous infusion of dobutamine at a rate of 15 μg/kg/min was administered in place of adenosine. After a stable dobutamine effect consisting of an increase in heart rate from the normal 100 beats per minute to 150 beats per minute was obtained, the microbubble dispersion and the emulsion were intravenously injected from two syringes as a simultaneous bolus. Infusion of dobutamine was continued for another 2 minutes after the contrast agent injection.

For assay [2], the system named is healthy myocardial tissue. To be noted: adenosine vasodilatation; cited from earlier work.

With `CC(CCc1ccc(O)cc1)NCCc1ccc(O)c(O)c1` (centres unmarked) [dobutamine], the heart rate in assay [1] is 150 beats per minute.

Turning to `Nc1ncnc2c1ncn2[C@@H]1O[C@H](CO)[C@@H](O)[C@H]1O` [adenosine], the “increase of coronary blood flow in healthy myocardial tissue” value in assay [2] is on record as “more than 400%”.
